Test results published in patent US20250214996A1, “SALTS AND SOLID FORMS OF AN ESTROGEN RECEPTOR ANTAGONIST” (Olema Pharmaceuticals, Inc., priority 2022, published 2025).

Legend:
Type in all cases: physicochemical
[1] = Dynamic vapor sorption (DVS) hygroscopicity
Procedure: Dynamic Vapor Sorption (DVS) was measured by a SMS (Surface Measurement Systems) DVS Intrinsic. Parameters for DVS test are listed below:
Alternatively, DVS was performed using Intrinsic DVS ([…], UK). About 30-50 mg of sample was placed in a sample basked and hung in the measuring chamber. For an isotherm test, the chamber temperature is maintained by a water bath at a constant 25±1° C. The sample was tested at a targeted RH from 0 to 90% full cycle in step mode. The analysis was performed in 10% RH increments. Time duration at each RH was set as 60 min so that the sample could reach equilibrium with the chamber environment. Data were collected in 20 s increments.
A DVS isotherm plot was collected at 25° C. to investigate the solid form stability as a function of humidity. For Compound 1 Fumarate Form A Anhydrate, solids were pre-equilibrated at 0% RH to remove the unbounded solvent or water before the hygroscopicity experiment was started.

[2] = Water solubility at RT, 24 hours, HPLC/pH/XRPD
Procedure: The HPLC method used for solubility measurements is summarized below:
Water solubility was measured in water at RT to evaluate solubility and disproportionation risk. […] After centrifugation, supernatants were collected for HPLC and pH tests, and wet cakes were collected for XRPD characterization.

[3] = Solubility by gravimetric method; conditions: H2O, 25° C.
Procedure: Solubility studies of Compound 1 and Compound 1 Fumarate in different solvents at 25° C. were performed. Solubility was measured by the dynamic method and gravimetric method.
Gravimetric method: Excess solids and a certain amount of solvent were added 8 mL vials, stirred for 24 hours, and filtered.

[4] = Stability in oven at 60° C. for two weeks
Procedure: Amorphous Compound 1, Compound 1 Fumarate Form E, and Compound 1 Fumarate Form A Anhydrate were placed in an oven at 60° C. for two weeks to evaluate their stability.

[5] = Competitive slurry of Fumarate Form E and Fumarate Form A Anhydrate (XRPD)
Procedure: Competitive slurry experiments were performed with Compound 1 Fumarate Form E and Compound 1 Fumarate Form A Anhydrate, as follows:
Experiment #1: Compound 1 Fumarate Form E (100 mg), Compound 1 Fumarate Form A Anhydrate (100 mg), and isopropanol (2 mL) were added into two 8-mL vials and mixed well in a shaker at 25° C. and 40° C., respectively. Samples for analysis were taken at 24 h and 72 h.
Experiment #2: Compound 1 Fumarate Form E (100 mg), Compound 1 Fumarate Form A Anhydrate (100 mg), and water (2 mL) were added into two 8-mL vials and mixed well in a shaker at 25° C. and 40° C., respectively. Samples for analysis were taken at 24 h and 72 h.
Experiment #3: Compound 1 Fumarate Form E (100 mg), Compound 1 Fumarate Form A Anhydrate (100 mg), and ethyl acetate (2 mL) were added into two 8-mL vials and mixed well in a shaker at 25° C. and 40° C., respectively. Samples for analysis were taken at 24 h and 72 h.

[6] = Slurry in isopropanol for 1 day (XRPD)

Structure (SMILES): CCCN1CC(Oc2ccc([C@@H]3c4[nH]c5ccccc5c4C[C@@H](C)N3CC(C)(C)F)cc2)C1.O=C(O)/C=C/C(=O)O [Compound 1 Fumarate Form A Anhydrate]
- hygroscopicity by DVS ([1]; DVS): non-hygroscopic
- water uptake up to 80% RH ([1]; DVS isotherm at 25° C.): less than 0.20%
- Form Change after DVS? ([1]; XRPD before and after DVS): No
- Hygroscopicity (%)* (class) ([1]; based on water uptake at 25° C./80% RH): Non-hygroscopic
- Hygroscopicity (%)* (water uptake) ([1]; water uptake at 25° C./80% RH): (0.108) %
- Purity ([2]; HPLC after 24 hours in water at RT): ~100%
- pH ([2]; supernatant after 24 hours in water at RT): 5.24
- Solubility in Water ([2]; water, RT, 24 hours, stirring at 400 rpm): 2230 µg/mL
- Form Change after 24 h? ([2]; wet cake XRPD after 24 hours in water at RT): No
- Solubility [3]: 6500 µg/mL
- HPLC Purity (%) Starting ([4]; before storage): 99.58%
- XRPD ([4]; form after oven at 60° C. for two weeks): No change
- HPLC Purity (%) 60° C. ([4]; oven at 60° C. for two weeks): 99.54%
- HPLC Purity (%) Degradation ([4]; oven at 60° C. for two weeks): −0.04%
- stability relative to Amorphous Compound 1 ([4]; oven at 60° C. for two weeks): improved stability
- competitive slurry outcome (XRPD) ([5]; ethyl acetate, 72 h at 25° C. or 40° C.): a mixture of Compound 1 Fumarate Form E and Compound 1 Fumarate Form A Anhydrate remained
- competitive slurry outcome (XRPD) ([5]; isopropanol, 24 h at 25° C. or 40° C.): completely transformed into Compound 1 Fumarate Form E
- competitive slurry outcome (XRPD) ([5]; water, 72 h at 25° C. or 40° C.): a mixture of Compound 1 Fumarate Form E and Compound 1 Fumarate Form A Anhydrate remained
- form after slurrying (XRPD) [6]: No change in form
